# Assay results published in patent US20240197712A1, “TGF-BETA INHIBITION FOR IMMUNODEFICIENCY VIRUS REACTIVATION FROM LATENCY, ENHANCEMENT OF IMMUNODEFICIENCY VIRUS-SPECIFIC RESPONSES AND IMMUNODEFICIENCY VIRUS CURE” (Northwestern University, priority 2022, published 2024).
# Assays:
# Type in all cases: in vivo, rhesus macaques
# SIVmac239M2 = experiment: SIV-IPDA intact and total provirus in PBMC
# Description: To determine the impact of galunsiertib on SIV reservoir, CA-vDNA was measured in PBMC, colorectal biopsies and lymph nodes (LN). […] In the gut and LN (right axillary), decreases range from a Log to ⅓ of a Log (gut: median 0.77; range:0.33-0.94 folds LN: median: 0.93; range:0.33-0.98 folds decrease). In the PBMC the decrease was slightly less pronounced with a median half Log decrease ([…] median: 0.58; range 0.28-0.88 folds decrease). However, the comparison for the PBMCs was between week ˜35 and week ˜45 (end of cycle 3, AC3) instead of the end of all 4 cycles, because a snap frozen pellet was not available at the end of cycle 4 for PBMCs. The SIV reservoir in PBMCs was also monitored by SIV-IPDA comparing before cycle 1 (BC1) to the end of cycle 4 (AC4). […] Intact provirus declined similarly to the CA-vDNA with a median of half Log (median: 0.53; range:0-0.71 folds decrease).
# Blood was collected in EDTA tubes and plasma was separated by density gradient centrifugation and used for the determination of plasma VL by SIVgag qRT-PCR at NIRC or at Leidos (Quantitative Molecular Diagnostics Core, AIDS and Cancer Virus Program Frederick National Laboratory). Tissue VL from snap frozen PBMC pellets, colorectal biopsies and LN FNA were performed as described in (77). SIV-TILDA was performed on freshly stored PBMC before cycle 1 and at the end of cycle 4 of galunisertib by Accelevir, Baltimore, MD.
# SIV-env = experiment: ImmunoPET/CT with 64Cu-DOTA-F(ab')2 p7D3 anti SIV-env probe, 1-2 weeks galunisertib
# Description: PET/CT imaging with a 64Cu-DOTA-F(ab′)2 p7D3 anti SIV-env probe were performed before Galunisertib treatment, after 7 days in all macaques and after 14 days in the macaques that were treated for 14 days. Briefly, a solution of 64Cu was incubated with DOTA-F(ab′)2 p7D3 antibody reconstituted with 50 μL of IM NH40Ac, pH of 5.5 and incubated for 1 hour at 37° C.; then purified by ultrafiltration in a desalting spin column (10K MWCO, Thermo Fisher) and finally eluted with sterile saline prior to injection. The labeled probe was injected IV via catheters, 24 h before PET-CT scanning. For taking PET/CT scans, the macaques were sedated with ketamine HCL (10 mg/kg), and/or telazol (4-8 mg/kg) via intramuscular and supplemented with ketamine (5 mg/Kg) as needed to perform the procedure. The macaque's body was immobilized in dorsal recumbency on the scanner table and PET/CT scans were acquired using a Philips Gemini TF64 PET/CT scanner. […]
# PET Image analysis was performed using the MIM software. PETCT fusions were generated scaled according to calculated Standardized Uptake Values. […]
# Regions of interest (ROI) were isolated using a combination of the Region Grow function and manual contouring on a representative scan. […] The signals of the whole body as well as within these ROI were quantified, and Max, Mean, and Total SUVs were calculated for further analyses. […]
# T and NK cells = experiment: High parameter flow cytometry of PBMC T and NK cells
# Description: Colorectal biopsy tissues were isolated by enzymatic digestion while LN biopsies were passed through a 70 μm cell strainer as described in (110). FlowJo vs 10.8 was use for both classical and high-dimensional analysis. PeacoQC, FlowtSNE and FlowSOM plug-ins were used with default settings. SwiftReg was used for normalization (113).
# Peripheral blood mononuclear cells (PBMCs) collected from 8 macaques at 7 time points spanning Cycle 1 to Cycle 4 (refer to Table 5) were employed for high-parameter flow cytometry staining. Cells from before and after cycle 1 and at the end of cycle 3 were used for Tfh/Treg assay. In both cases, cell fixation and permeabilization for intracellular staining were carried out using the FoxP3 Staining Buffer set (Thermo Fisher Scientific, Carlsbad, CA). The high-dimensional panel consisted of antibodies outlined in Table 4, catering to requirements for surface and intracellular staining, as well as viability assessment. Each antibody was individually titrated to ensure optimal staining conditions. Data acquisition was performed using the FACSymphony A5.2 Spectral Analyzer. Following data collection, spectral compensation was implemented utilizing FlowJo™ v10.8 Software (BD Life Sciences). 60,000 live singlet lymphocytes from each of samples was downsampled to prevent disproportionate representation by samples with higher cell counts, ensuring balanced subsequent analysis. To mitigate batch effects, we utilized the swiftReg Neighbor-Dependent Cluster Registration (NDCR) method available within the SWIFT package(112). This method effectively addresses batch variations while preserving the inherent biological diversity. […] Furthermore, we implemented the Peak Extraction and Cleaning Oriented Quality Control (PeacoQC) procedure (138) in FlowJo™ v10.8 to eliminate low-quality events arising from potential issues like clogs, speed fluctuations, and slow sample uptake. FlowSOM FlowJo plugin was employed for automated cell population identification, preceded by the utilization of Phenograph to obtain optimal cluster numbers for dimensional reduction, for the merged data of All Time points and BC1 vs AC4 merged data respectively. The Supplementary FIG. 29A heatmap illustrates the median fluorescence intensity (MFI) values for all markers across all clusters. A tSNE plot, generated in FlowJo™ using the markers employed in the FlowSOM analysis, is presented, with coloring based on the FlowSOM clustering or two specific time points, BC1 vs AC4 in FIG. 4G.
compound,measurement,setting,value
"Cc1cccc(-c2nn3c(c2-c2ccnc4ccc(C(N)=O)cc24)CCC3)n1 [galunisertib, Galunisertib]",decrease of intact pro-virus in PBMC,"SIVmac239M2; BC1 (week 35 pi) to AC4 (week 49 pi), median",3 fold
same,"intact provirus decline by SIV-IPDA, median","SIVmac239M2; PBMC, BC1 vs AC4",0.53 folds
same,"intact provirus decline by SIV-IPDA, range","SIVmac239M2; PBMC, BC1 vs AC4",0-0.71 folds
same,total and intact provirus by SIV-IPDA,"SIVmac239M2; PBMC, BC1 vs AC4",significant decreases
same,macaques with clear extensive viral reactivation in the gut (PET signal),SIV-env; day 7 or 14 of treatment vs baseline,3 of the 7
same,macaques with increased SUVtot in PET/CT images in gut and lymph nodes,"SIV-env; oral galunisertib, aviremic long-term ART-treated macaques",5 out of 7
same,proliferation marker Ki67 in NK cells,T and NK cells; AC1 vs BC1,initial increase
same,T-Bet in CD8+ T cells,T and NK cells; BC2 vs BC1,significant decrease
same,systemic immune activation,"T and NK cells; Example 5, end of 1st cycle, PBMC RNAseq, CD69 and CD38 on T cells",did non induce systemic immune activation
same,"effector phenotype in T cells (CD95, CD62L)","T and NK cells; Example 5, preliminary data",increased expression of CD95
same,TCF1 expression in CD4+ T cells,"T and NK cells; PBMC, throughout treatment",profound consistent decrease
same,expression of CD95 in CD4+ T cells,"T and NK cells; PBMC, throughout treatment",substantial increase
same,CD62L in CD4+ T cells,"T and NK cells; after the first cycle, reverted to baseline later",small decrease
same,"expression of activation markers CD69, HLA-DR and Ki67 in CD4+ T cells",T and NK cells; exception: HLA-DR increase at beginning of cycle 2,remained mostly unchanged
same,CCR7 expression in memory CD8+ T cells,"T and NK cells; rhesus monkey, in vivo",sustained significant increase
same,CD16 expression within NKG2A+CD8+ NK cells,"T and NK cells; rhesus monkey, in vivo",pronounced increase
same,CD95 expression in CD8+ T cells,"T and NK cells; rhesus monkey, in vivo",No significant increase
same,TCF1 downregulation in CD8+ T cells,"T and NK cells; rhesus monkey, in vivo",reached significance only at the end of the treatment
same,expression of CCR7 or CD28 within CD95+CD4+ T cells,"T and NK cells; rhesus monkey, in vivo",no change
same,expression of PD1 on CD4+ and CD8+ T cells,"T and NK cells; rhesus monkey, in vivo",either did not change or was slightly downregulated
same,frequency of naïve (CD95−) cells within CD4+ T cells,"T and NK cells; rhesus monkey, in vivo",decreased
same,gut homing receptor integrin α4β7 in CD4+ T cells,"T and NK cells; rhesus monkey, in vivo",downregulation
same,levels of T-bet in CD4+ T cells,"T and NK cells; rhesus monkey, in vivo",did not change significantly
same,levels of granzyme B in CD4+ T cells,"T and NK cells; rhesus monkey, in vivo",decrease
